Read-outs that look alike come from different tables or passages of the source.

The test system of data set [1] is HSNECs. Briefly: Ciliary beat frequency analysis. The format is cell-based, human. The procedure: After applying 100 μL of sterilized PBS as control or PBS containing drug to the apical surface of the cells, the motion images were acquired for 30 minutes. Under each condition, image acquisition was performed using a Basler area scan high-speed monochromatic digital video camera (Basler AG, Ahrensburg, Germany) at a sampling rate of 100 frames per second. The Sisson-Ammons Video Analysis (SAVA) system was used to acquire CBF. Baseline CBF recording was conducted in the previously described manner, and each analysis of CBF was normalized to fold-change over baseline CBF Hz (treatment/baseline).^28

The subject of data set [2] is HSNECs. In words: HSNEC viability LDH assay. The format is cell-based, human. An excerpt: Concentration gradients generated from internal standards (with positive controls) provided by the manufacturer render a theoretical kit detection range in biological samples containing IL-8. […] Louis, Mo.). […] The resulting formazan absorbs maximally at 492 nm and can be measured quantitatively at 490 nm. Total LDH in each sample was expressed as ng/ml.

For data set [3], the system named is HSNECs. Briefly: Paracellular permeability of FITC dextran across HSNECs. The data set is classed as cell-based, human. The conditions noted are these: for average paracellular permeability of dextran particles: human. As to the method:
The diffusion-barrier of […] is determined by a tight epithelial barrier and tight junction formation and is impacted by a number of chemicals. […] The permeated concentrations of FITC dextran were quantified by a fluorescence microplate reader.

In another data set the test system is Interleukin-8 (IL-8). In words: LPS-induced IL-8 secretion from HSNEC (ELISA). The data set is classed as cell-based, human. Particulars: n=3. An excerpt:
(§1) Primary HSNECs were collected with prior approval of the Institutional Review Board at University of Alabama at Birmingham (UAB) (IRB-120305017). Written informed consent from each participant was collected and subjects were screened and negative for a mutation in the cystic fibrosis transmembrane conductance regulator gene. Primary HSNECs were derived from turbinate mucosa from 3 healthy donors undergoing surgery for non-inflammatory conditions and cultured on collagen-coated Costar 6.5-mm-diameter permeable filter supports (Corning, Lowell, Mass.) submerged in established culture media. Differentiation and ciliogenesis occurred in all cultures within 10 to 14 days.^17-26 Matured HSNECs with resistance over 300 Ω/cm^2 and 80% field ciliogenesis by inverted microscopy were subjected to experiments.
After the incubation period, the basal media (600 μL) were collected and measured for IL-8 concentration in each sample according to the manufacture's protocol (R&D systems, Minneapolis, Minn.). The secreted IL-8 concentration in each sample was evaluated by measuring the absorbance at 450 nm using a microplate reader (Synergy HK, BIO-TEK Instruments, Winooski, Vt.). All samples were performed in triplicate.
To evaluate the anti-inflammatory effects of azithromycin on HSNEC, cells were stimulated with 25 μg/ml of P. aeruginosa lipopolysaccharide (LPS) for 2 hours, and treated with incremental azithromycin concentrations (6, 60, and 180 μg/ml) (FIG. 13). After a 24-hour incubation period, the basolateral media was harvested and secreted IL-8 was measured.
On the technique in general: An ELISA detects its analyte on a solid surface through an enzyme-linked reagent.

Data set [4] deals with HSNECs. Particulars: human, 30 μg/ml.
Excerpt: as §1

As for `CC[C@H]1OC(=O)[C@H](C)[C@@H](O[C@H]2C[C@@](C)(OC)[C@@H](O)[C@H](C)O2)[C@H](C)[C@@H](O[C@@H]2O[C@H](C)C[C@H](N(C)C)[C@H]2O)[C@](C)(O)C[C@@H](C)CN(C)[C@H](C)[C@@H](O)[C@]1(C)O` [azithromycin], the “ciliary beat frequency” value in the data set with HSNECs [1] is given as “No significant difference in ciliary beat frequency”. Moreover, the “cellular viability of HSNECs, LDH” value in the data set on HSNECs [2] is listed as “No detrimental effect on the cellular viability”. In addition, the “paracellular permeability of HSNECs over time” value in the data set on HSNECs [3] is “No alterations in average paracellular permeability”. The “average paracellular permeability of dextran particles” value in the data set with HSNECs [3] (3 h) is 0.10+/−0.15%; with HSNECs [3] (6 h), 3.44+/−0.24%. In addition, the “secreted IL-8” value was 4.579 ± 0.399 ng/mL in the data set on Interleukin-8 (IL-8) (azithromycin 6 μg/ml, 25 μg/ml LPS 2 hours, 24-hour incubation); 4.312 ± 0.057 ng/mL in the data set with Interleukin-8 (IL-8) (azithromycin 60 μg/ml, 25 μg/ml LPS 2 hours, 24-hour incubation); 4.269 ± 0.258 ng/mL in the data set on Interleukin-8 (IL-8) (azithromycin 180 μg/ml, 25 μg/ml LPS 2 hours, 24-hour incubation). Besides, the “normalized TEER” value is recorded as 1.14+/−0.06 Ω/cm^2 with HSNECs [4] (3 h) and 1.02+/−0.37 Ω/cm^2 in the data set on HSNECs [4] (6 h).
Consider `O=C(O)c1cn(C2CC2)c2cc(N3CCNCC3)c(F)cc2c1=O` [ciprofloxacin], for which the “ciliary beat frequency” value in the data set with HSNECs [1] is “No significant difference in ciliary beat frequency”. The “cellular viability of HSNECs, LDH” value with HSNECs [2] is on record as “No detrimental effect on the cellular viability”. In addition, the “secreted IL-8” value in the data set with Interleukin-8 (IL-8) (ciprofloxacin 2.4 μg/ml alone with LPS exposure) came out at 6.40 ± 0.26 ng/mL.

The values above are taken from patent US20220387304A1, “MULTI-LAYERED NANOPARTICLE COATED SUBSTRATES FOR DRUG DELIVERY” (The UAB Research Foundation, priority 2019, published 2022).
